Results as given in publication PMC6222329 (Molecules : A Journal of Synthetic Chemistry and Natural …, 2018).

How the values were obtained:
[1] = target: T1, AChE (Electrophorus electricus) (Electrophorus electricus, UniProt O42275); assay: AChE inhibition, Ellman's method; format: biochemical
T1 construct: purchased Sigma-Aldrich (Steinheim, Germany)
Protocol: (§1) The assay was performed in two steps.
(§2) All enzymes were obtained from Sigma-Aldrich (Steinheim, Germany). Ellman’s reagent and the substrates were obtained from Fluka (Buchs, Switzerland). The chemicals used to prepare the buffer solution were purchased from Merck (Darmstadt, Germany).
(§3) The enzyme inhibitory activities of the synthesized compounds were investigated by applying Ellman’s method. Enzyme solutions were dissolved in gelatin solution (1%; 2.5 units/mL). […] Then, the reaction was initiated by the addition of Ellman’s reagent 5,5′-Dithiobis(2-nitrobenzoic acid) (DTNB; 20 µL/well, 10 mM) and the substrate (10 µL/well, 75 mM). […] The enzyme solution was processed as a control. All readings were adjusted with blank-reading. All assays were performed in four independent wells. […] Absorbance differences between the two readings were taken, and percentage inhibition rates were calculated according to the following formula: % Inhibition=[(A(C)−A(B))−(A(I)−A(B))]/(A(C)−A(B))×100.
(§4) • Blank (B): the well in which the inhibitor compound and substrate were not added; • Control (C): the well where the inhibitor compound was not added; • A(B): the difference in absorbance reading for the blank; • A(C): the difference in absorbance reading for the control; • A(I): the difference in absorbance reading for the inhibitor compounds.

[2] = target: T2, AChE (Human) (Homo sapiens, UniProt P22303); assay: AChE inhibition, Ellman's method; format: biochemical
T2 construct: purchased Sigma-Aldrich (Steinheim, Germany)
Protocol: as §1, §2, §3, §4

[3] = target: T3, BChE (Equine) (Equus caballus, UniProt P81908); assay: biochemical; format: biochemical
T3 construct: purchased Sigma-Aldrich (Steinheim, Germany)
Protocol: as §1, §2, §3, §4

[4] = target: T4, BChE (Human) (Homo sapiens, UniProt P06276); assay: BChE inhibition, Ellman's method; format: biochemical; settings: for IC50: read-out: BChE (Human) IC50
T4 construct: purchased Sigma-Aldrich (Steinheim, Germany)
Protocol: as §1, §2, §3, §4

[5] = test system: murine fibroblast healthy cell line (NIH3T3); assay: MTT cell viability assay; format: cell-based; settings: 24 h, 0.000316 µM to 1000 µM, read-out: IC50 against NIH3T3
Protocol: The active compounds (4a, 4b, 4e, 4i, 4m, 4n, 4o, and 4t) were chosen to determine their cytotoxic activity toward a murine fibroblast healthy cell line (NIH3T3). After incubating the cells with active compounds at concentrations of 0.000316 µM to1000 µM for 24 h, the cell viability was measured using the 3-(4,5-dimethylthiazol-2-yl)-2,5-diphenyltetrazolium (MTT) assay. The inhibition percentage was calculated for each concentration of the test compounds. The IC50 values of the compounds were determined using a non-linear regression analysis over the calculated percentage inhibition values, and they are presented in Table 2. Accordingly, the cytotoxicity test proposed that the active derivatives were nontoxic against NIH3T3 cells at their active concentrations against BChE.
Healthy murine embryonic fibroblast cells (NIH3T3 cell line) were used for the cytotoxicity tests. The cell line and selected compounds were prepared for an MTT assay as reported previously. The optical densities (OD) of 96 well plates were recorded at 540 nm. […]

T1 sequence (O42275 24-633): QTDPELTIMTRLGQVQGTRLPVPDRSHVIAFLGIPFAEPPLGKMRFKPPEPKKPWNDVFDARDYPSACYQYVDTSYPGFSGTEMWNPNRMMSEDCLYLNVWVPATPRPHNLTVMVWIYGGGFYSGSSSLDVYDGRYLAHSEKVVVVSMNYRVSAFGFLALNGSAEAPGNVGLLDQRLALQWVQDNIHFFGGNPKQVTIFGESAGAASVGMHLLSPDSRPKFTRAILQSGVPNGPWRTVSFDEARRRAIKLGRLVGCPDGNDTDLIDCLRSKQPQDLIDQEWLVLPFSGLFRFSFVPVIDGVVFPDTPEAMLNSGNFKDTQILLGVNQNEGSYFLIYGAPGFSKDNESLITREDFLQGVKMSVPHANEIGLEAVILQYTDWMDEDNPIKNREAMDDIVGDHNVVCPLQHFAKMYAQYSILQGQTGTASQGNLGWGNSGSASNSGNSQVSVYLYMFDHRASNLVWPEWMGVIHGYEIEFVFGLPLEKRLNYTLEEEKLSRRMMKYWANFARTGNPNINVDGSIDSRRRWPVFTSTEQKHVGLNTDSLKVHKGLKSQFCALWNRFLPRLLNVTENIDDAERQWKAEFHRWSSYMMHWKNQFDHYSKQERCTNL
T2 sequence (P22303 32-614): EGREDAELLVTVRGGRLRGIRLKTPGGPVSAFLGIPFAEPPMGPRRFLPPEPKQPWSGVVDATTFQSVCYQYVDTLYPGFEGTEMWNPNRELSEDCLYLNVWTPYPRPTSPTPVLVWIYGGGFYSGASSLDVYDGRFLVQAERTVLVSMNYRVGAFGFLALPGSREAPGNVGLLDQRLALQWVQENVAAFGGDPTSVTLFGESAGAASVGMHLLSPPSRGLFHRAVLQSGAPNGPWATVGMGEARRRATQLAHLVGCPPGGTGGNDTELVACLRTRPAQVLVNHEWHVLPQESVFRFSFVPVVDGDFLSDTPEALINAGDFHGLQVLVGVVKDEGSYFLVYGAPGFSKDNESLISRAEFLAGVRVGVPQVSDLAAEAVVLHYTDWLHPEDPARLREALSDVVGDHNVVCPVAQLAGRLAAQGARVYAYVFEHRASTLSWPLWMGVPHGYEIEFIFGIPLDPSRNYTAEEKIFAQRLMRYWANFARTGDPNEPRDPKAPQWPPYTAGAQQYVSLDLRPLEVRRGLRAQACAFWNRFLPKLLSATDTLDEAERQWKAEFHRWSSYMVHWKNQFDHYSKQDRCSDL
T4 sequence (P06276 29-602): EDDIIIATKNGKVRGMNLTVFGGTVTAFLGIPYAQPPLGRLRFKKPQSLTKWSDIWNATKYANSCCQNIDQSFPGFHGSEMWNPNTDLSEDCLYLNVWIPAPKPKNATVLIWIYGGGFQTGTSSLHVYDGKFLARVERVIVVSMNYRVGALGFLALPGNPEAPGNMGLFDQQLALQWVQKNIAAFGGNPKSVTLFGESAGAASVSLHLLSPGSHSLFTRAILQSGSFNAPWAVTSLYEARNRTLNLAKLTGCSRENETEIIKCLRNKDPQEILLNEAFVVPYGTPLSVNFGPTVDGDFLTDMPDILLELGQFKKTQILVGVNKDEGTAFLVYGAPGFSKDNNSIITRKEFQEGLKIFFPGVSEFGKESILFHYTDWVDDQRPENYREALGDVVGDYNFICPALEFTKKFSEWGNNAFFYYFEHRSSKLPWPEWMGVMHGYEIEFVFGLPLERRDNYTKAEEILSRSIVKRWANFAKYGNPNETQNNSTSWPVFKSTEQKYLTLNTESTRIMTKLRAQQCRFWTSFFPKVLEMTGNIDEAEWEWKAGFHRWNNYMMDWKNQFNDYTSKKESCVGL
T3 sequence (P81908 whole entry): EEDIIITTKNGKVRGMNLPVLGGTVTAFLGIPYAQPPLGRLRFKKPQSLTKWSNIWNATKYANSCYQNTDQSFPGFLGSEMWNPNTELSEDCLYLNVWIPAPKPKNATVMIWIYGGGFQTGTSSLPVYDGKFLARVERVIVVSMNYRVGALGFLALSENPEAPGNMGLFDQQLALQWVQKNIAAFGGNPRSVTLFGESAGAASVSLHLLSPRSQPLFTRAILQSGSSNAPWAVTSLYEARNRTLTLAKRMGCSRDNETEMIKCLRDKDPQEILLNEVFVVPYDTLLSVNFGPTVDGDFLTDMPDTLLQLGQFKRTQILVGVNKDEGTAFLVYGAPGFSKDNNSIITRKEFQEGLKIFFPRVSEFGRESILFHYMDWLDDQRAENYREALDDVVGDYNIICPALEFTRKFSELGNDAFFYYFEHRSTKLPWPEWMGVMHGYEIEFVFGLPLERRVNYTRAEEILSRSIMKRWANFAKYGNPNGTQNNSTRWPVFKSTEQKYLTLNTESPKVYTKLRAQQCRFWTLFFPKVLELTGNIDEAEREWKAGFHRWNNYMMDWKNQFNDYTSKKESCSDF

Row | SMILES | AChE (Electrophorus electricus) inhibitory activity (%) ± SD ([1]; 10^-3 M) [%] | AChE (Electrophorus electricus) inhibitory activity (%) ± SD ([1]; 10^-4 M) [%] | AChE (Human) inhibitory activity (%) ± SD ([2]; 10^-3 M) [%] | AChE (Human) inhibitory activity (%) ± SD ([2]; 10^-4 M) [%] | IC50 [3] [µM] | BChE (Equine) inhibitory activity (%) ± SD ([3]; 10^-3 M) [%] | BChE (Equine) inhibitory activity (%) ± SD ([3]; 10^-4 M) | BChE (Equine) inhibitory activity (%) ± SD ([3]; 10^-5 M) [%] | BChE (Equine) inhibitory activity (%) ± SD ([3]; 10^-6 M) [%] | BChE (Equine) inhibitory activity (%) ± SD ([3]; 10^-7 M) [%] | BChE (Equine) inhibitory activity (%) ± SD ([3]; 10^-8 M) [%] | BChE (Equine) inhibitory activity (%) ± SD ([3]; 10^-9 M) [%] | BChE (Human) inhibitory activity (%) ± SD ([4]; 10^-3 M) [%] | BChE (Human) inhibitory activity (%) ± SD ([4]; 10^-4 M) | BChE (Human) inhibitory activity (%) ± SD ([4]; 10^-5 M) [%] | BChE (Human) inhibitory activity (%) ± SD ([4]; 10^-6 M) [%] | BChE (Human) inhibitory activity (%) ± SD ([4]; 10^-7 M) [%] | BChE (Human) inhibitory activity (%) ± SD ([4]; 10^-8 M) [%] | BChE (Human) inhibitory activity (%) ± SD ([4]; 10^-9 M) [%] | IC50 [4] [µM] | also measured
1 | CN(C)CCN1CCN(C(=S)SCC(=O)Nc2c3ccccc3nc3ccccc23)CC1 [Compound 4a, 2-(9-Acridinylamino)-2-oxoethyl 4-(2-(dimethylamino)ethyl)piperazine-1-carbodithioate] | 60.13±1.54 | 17.03 ± 0.48 | 62.20±1.05 | 18.15 ± 0.51 | 0.226 ± 0.008 | 99.13±3.21 | * 91.13 ± 2.94% | 84.80±2.76 | 52.10±1.04 | 39.90±0.81 | 28.24±0.54 | 19.69±0.99 | 98.50±2.46 | * 93.25 ± 2.24% | 86.20±1.46 | 55.00±1.11 | 36.21±0.97 | 30.20±0.68 | 15.79±0.81 | 0.243 ± 0.009 | IC50 [5]: 26.8 µM
2 | CN(C)CCCN1CCN(C(=S)SCC(=O)Nc2c3ccccc3nc3ccccc23)CC1 [Compound 4b, 2-(9-Acridinylamino)-2-oxoethyl 4-(3-(dimethylamino)propyl)piperazine-1-carbodithioate] | 79.95±1.78 | 32.41 ± 1.01 | 75.66±1.17 | 35.49 ± 1.00 | 0.264 ± 0.012 | 98.16±3.11 | * 82.50 ± 2.07% | 70.30 ±1.80 | 46.10±0.74 | 41.80±0.81 | 33.04±0.78 | 26.35±0.77 | 97.55±2.05 | * 84.18 ± 2.21% | 72.99 ±1.35 | 45.26±0.85 | 40.87±0.67 | 35.28±0.53 | 28.74±0.50 | 0.222 ± 0.01 | IC50 [5]: 25.6 µM
3 | O=C(CSC(=S)N1CCN(c2ccc(F)cc2)CC1)Nc1c2ccccc2nc2ccccc12 [Compound 4p, 2-(9-Acridinylamino)-2-oxoethyl 4-(4-fluorophenyl)piperazine-1-carbodithioate] | 98.66±2.98 | 48.40 ± 1.18 | 96.90±2.17 | 49.51 ± 1.50 | – | 93.27±3.07 | 48.65 ± 1.14% | – | – | – | – | – | 92.55±2.51 | 40.71 ± 1.08% | – | – | – | – | – | – | –
4 | O=C(CSC(=S)N1CCN(C(=O)c2ccco2)CC1)Nc1c2ccccc2nc2ccccc12 [Compound 4q, 2-(9-Acridinylamino)-2-oxoethyl 4-(furan-2-carbonyl)piperazine-1-carbodithioate] | 68.60±1.57 | 16.35 ± 0.39 | 70.29±1.18 | 20.28 ± 0.51 | – | 92.00±3.44 | 39.90 ± 1.36% | – | – | – | – | – | 95.29±2.16 | 42.48 ± 1.22% | – | – | – | – | – | – | –
5 | O=C(CSC(=S)N1CCOCC1)Nc1c2ccccc2nc2ccccc12 [Compound 4r, 2-(9-Acridinylamino)-2-oxoethyl morpholine-4-carbodithioate] | 68.20±1.69 | 37.33 ± 1.03 | 64.93±1.21 | 40.70 ± 1.00 | – | 91.26±3.42 | 45.30 ± 1.88% | – | – | – | – | – | 94.18±2.62 | 43.29 ± 1.17% | – | – | – | – | – | – | –
6 | O=C(CSC(=S)N1CCCCC1)Nc1c2ccccc2nc2ccccc12 [Compound 4s, 2-(9-Acridinylamino)-2-oxoethyl piperidine-1-carbodithioate] | 44.51±0.96 | 32.17 ± 1.23 | 49.05±0.88 | 35.20 ± 1.12 | – | 86.72±3.07 | 38.40 ± 0.74% | – | – | – | – | – | 84.27±2.16 | 34.99 ± 0.63% | – | – | – | – | – | – | –
7 | CC1CCCCN1C(=S)SCC(=O)Nc1c2ccccc2nc2ccccc12 (stereo not drawn) [Compound 4t, 2-(9-Acridinylamino)-2-oxoethyl 2-methylpiperidine-1-carbodithioate] | 81.22±2.77 | 15.94 ± 0.42 | 85.44±1.72 | 14.51 ± 0.44 | 1.52 ± 0.072 | 96.06±3.61 | * 55.00 ± 1.74% | 49.04±0.68 | 41.33±0.41 | 35.75±0.53 | 30.66±0.59 | 28.50±0.66 | 97.28±3.00 | * 54.26 ± 1.27% | 48.19±1.08 | 38.35±0.88 | 36.47±0.60 | 32.40±0.57 | 29.77±0.41 | 1.61 ± 0.062 | –
8 | O=C(CSC(=S)N1CCC(Cc2ccccc2)CC1)Nc1c2ccccc2nc2ccccc12 [Compound 4u, 2-(9-Acridinylamino)-2-Oxoethyl 4-Benzylpiperidine-1-Carbodithioate] | 69.30±1.28 | 25.88 ± 0.74 | 65.77±1.17 | 30.71 ± 0.52 | – | 32.20±0.59 | 29.50 ± 0.48% | – | – | – | – | – | 38.33±0.87 | 31.21 ± 0.50% | – | – | – | – | – | – | –
